test system: HT-29 colorectal cancer cells; experiment: MTT anti-proliferative assay against HT-29 cells; assay type: cell-based, human; details: Homo sapiens, HT-29, 48 h, MTT, 48 h, 0–100 µM; value with 95% confidence interval; read-out: HT-29 IC50 μM (95% CI)
Description: (§1) The toxicity of the thirty-six compounds was determined in vitro by means of the MTT assay. Doxorubicin, a drug widely used to treat different types of cancer, was employed as a positive control, whereas the solvent (DMSO) was used as negative control.
(§2) Test compounds were dissolved in DMSO to obtain stock solutions that were maintained as small aliquots at −20 °C. At time of drug addition, an aliquot was thawed and diluted to obtain the desired final maximum test concentration of 100 μM, with complete medium. The final percentage of DMSO in the wells was less than 1% (v/v). […] Anti-Proliferative Assay
(§3) Doxorubicin, a drug widely used to treat different types of cancer, was used as a positive control. After 48 h, the medium was removed and cells were incubated with MTT solution (0.25 mg/mL). Four hours later, the medium was carefully aspired and formazan crystals were dissolved in DMSO (100 μL). The OD550 was measured using a plate reader (Multiskan Go, Thermo Scientific, Waltham, MA, USA). […] The selectivity index (SI), was calculated as a ratio of IC50Fibroblast/IC50HT-29cells.
(§4) The results are expressed as the mean of triplicate measurements in at least two independent experiments.

Row | SMILES | IC50 [µM]
1 | COC(=O)C1C2=C(OC1c1ccccc1)C(=O)c1ccccc1C2=O (centres unmarked) [Compound 4n, Methyl 4,9-Dioxo-2-phenyl-2,3,4,9-tetrahydronaphtho[2,3-b]furan-3-carboxylate] | > 100
2 | COC1(C(C)=O)CC2=C(O1)C(=O)c1ccccc1C2=O (centres unmarked) [Compound 4l, 2-Acetyl-2-methoxy-2,3-dihydronaphtho[2,3-b]furan-4,9-dione] | 34.9
3 | C/C=C/C1=C(O)C(=O)c2ccccc2C1=O [Compound 4a, 2-Hydroxy-3-[(1E)-prop-1-en-1-yl]naphthalene-1,4-dione] | > 100
4 | O=C1c2ccccc2C(=O)c2oc(-c3ccccc3)cc21 [Compound 4k, 2-Phenylnaphtho[2,3-b]furan-4,9-dione] | > 10
5 | O=C1C2=C(OC(c3ccccc3)C2)C(=O)c2ccccc21 (centres unmarked) [Compound 4q, 2-Phenyl-2,3-dihydronaphtho[2,3-b]furan-4,9-dione] | 30.2
6 | Cc1cc2c([nH]1)C(=O)c1ccccc1C2=O [Compound 2b, 2-Methyl-1H-benzo[f]indole-4,9-dione] | > 100
7 | CCCc1[nH]c2c(c1C)C(=O)c1ccccc1C2=O [Compound 2f, 3-Methyl-2-propyl-1H-benzo[f]indole-4,9-dione] | > 100
8 | CCCC/C=C/C1=C(O)C(=O)c2ccccc2C1=O [Compound 4c, 2-[(1E)-Hex-1-en-1-yl]-3-hydroxynaphthalene-1,4-dione] | > 100
9 | CC1=C(N)C(=O)c2ccccc2C1=O [Compound 3a, 2-Amino-3-methylnaphthalene-1,4-dione] | > 100

More lines, now with the values ahead:

Row | IC50 [µM] | SMILES
10 | 1.73 | O=C(c1cccs1)c1cc2c(s1)C(=O)c1c(O)cccc1C2=O [Compound 7, 8-hydroxy-2-(thiophen-2-ylcarbonyl)naphtho[2,3-b]thiophene-4,9-dione]
11 | 3.07 | CCc1noc(-c2cc3c(s2)C(=O)c2ccccc2C3=O)n1 [Compound 9, 2-(3-ethyl-1,2,4-oxadiazol-5-yl)naphtho[2,3-b]thiophene-4,9-dione]
12 | 17.6 | Cc1cc2c(o1)C(=O)c1ccccc1C2=O [Compound 4d, 2-Methylnaphtho[2,3-b]furan-4,9-dione]
13 | 13.7 | CCc1cc2c(o1)-c1ccccc1C(=O)C2=O [Compound 4h, 2-Ethylnaphtho[1,2-b]furan-4,5-dione]
14 | 28.1 | C=C(C)C1(C)CC2=C(O1)c1ccccc1C(=O)C2=O (centres unmarked) [Compound 4p, 2-Methyl-2-(prop-1-en-2-yl)-2,3-dihydronaphtho[1,2-b]furan-4,5-dione]
15 | 25.8 | C=C(C)C1(C)CC2=C(O1)C(=O)c1ccccc1C2=O (centres unmarked) [Compound 4o, 2-Methyl-2-(prop-1-en-2-yl)-2,3-dihydronaphtho[2,3-b]furan-4,9-dione]
16 | 1.07 | COc1cccc2c1C(=O)c1c(O)c3c(c(O)c1C2=O)C[C@@](O)(C(=O)CO)C[C@@H]3O[C@H]1C[C@H](N)[C@H](O)[C@H](C)O1 [Doxorubicin, reference compound]
17 | 6.89 | CCN(CC)C(=O)c1cc2c(s1)C(=O)c1c(Cl)cccc1C2=O [Compound 8, 8-chloro-N,N-diethyl-4,9-dioxo-4,9-dihydronaphtho[2,3-b]thiophene-2-carboxamide]

same assay, conditions: Homo sapiens, HT-29, −logIC50 against HT-29; CoMFA training and test sets; read-out: pIC50 Experimental (converted)

Row | IC50 [µM] | SMILES
18 | 1.73 | O=C(c1cccs1)c1cc2c(s1)C(=O)c1c(O)cccc1C2=O [Compound 7, 8-hydroxy-2-(thiophen-2-ylcarbonyl)naphtho[2,3-b]thiophene-4,9-dione]
19 | 3.07 | CCc1noc(-c2cc3c(s2)C(=O)c2ccccc2C3=O)n1 [Compound 9, 2-(3-ethyl-1,2,4-oxadiazol-5-yl)naphtho[2,3-b]thiophene-4,9-dione]
20 | 17.6 | Cc1cc2c(o1)C(=O)c1ccccc1C2=O [Compound 4d, 2-Methylnaphtho[2,3-b]furan-4,9-dione]
21 | 13.7 | CCc1cc2c(o1)-c1ccccc1C(=O)C2=O [Compound 4h, 2-Ethylnaphtho[1,2-b]furan-4,5-dione]
22 | 6.89 | CCN(CC)C(=O)c1cc2c(s1)C(=O)c1c(Cl)cccc1C2=O [Compound 8, 8-chloro-N,N-diethyl-4,9-dioxo-4,9-dihydronaphtho[2,3-b]thiophene-2-carboxamide]

same assay, conditions: Homo sapiens, HT-29; MTT, 48 h, 0–100 µM; value with 95% confidence interval; read-out: HT-29 IC50 μM (95% CI)

Row | SMILES | IC50 [µM]
23 | NC1=CC(=O)c2ccccc2C1=O [Compound 2, 2-Aminonaphthalene-1,4-dione] | 24.6

same assay, conditions: Homo sapiens; −logIC50 against HT-29; CoMFA training and test sets; read-out: pIC50 Experimental (converted)

Row | SMILES | IC50 [µM]
24 | NC1=CC(=O)c2ccccc2C1=O [Compound 2, 2-Aminonaphthalene-1,4-dione] | 24.6

same assay, conditions: SI = IC50Fibroblast/IC50HT-29cells

Row | SMILES | Selectivity Index
25 | COC1(C(C)=O)CC2=C(O1)C(=O)c1ccccc1C2=O (centres unmarked) [Compound 4l, 2-Acetyl-2-methoxy-2,3-dihydronaphtho[2,3-b]furan-4,9-dione] | 0.37
26 | CCc1noc(-c2cc3c(s2)C(=O)c2ccccc2C3=O)n1 [Compound 9, 2-(3-ethyl-1,2,4-oxadiazol-5-yl)naphtho[2,3-b]thiophene-4,9-dione] | 0.34
27 | Cc1cc2c(o1)C(=O)c1ccccc1C2=O [Compound 4d, 2-Methylnaphtho[2,3-b]furan-4,9-dione] | 1.05
28 | O=C1C2=C(OC(c3ccccc3)C2)C(=O)c2ccccc21 (centres unmarked) [Compound 4q, 2-Phenyl-2,3-dihydronaphtho[2,3-b]furan-4,9-dione] | 0.30
29 | CCc1cc2c(o1)-c1ccccc1C(=O)C2=O [Compound 4h, 2-Ethylnaphtho[1,2-b]furan-4,5-dione] | 0.27
30 | C=C(C)C1(C)CC2=C(O1)c1ccccc1C(=O)C2=O (centres unmarked) [Compound 4p, 2-Methyl-2-(prop-1-en-2-yl)-2,3-dihydronaphtho[1,2-b]furan-4,5-dione] | 0.15
31 | CCN(CC)C(=O)c1cc2c(s1)C(=O)c1c(Cl)cccc1C2=O [Compound 8, 8-chloro-N,N-diethyl-4,9-dioxo-4,9-dihydronaphtho[2,3-b]thiophene-2-carboxamide] | 0.37
32 | NC1=CC(=O)c2ccccc2C1=O [Compound 2, 2-Aminonaphthalene-1,4-dione] | 0.30

same assay, conditions: classified by HT-29 IC50

Row | SMILES | Cytotoxic activity category against HT-29
33 | Cc1cc2c(o1)C(=O)c1ccccc1C2=O [Compound 4d, 2-Methylnaphtho[2,3-b]furan-4,9-dione] | highly active
34 | CCc1cc2c(o1)-c1ccccc1C(=O)C2=O [Compound 4h, 2-Ethylnaphtho[1,2-b]furan-4,5-dione] | highly active

test system: fibroblasts PCS-201-012; experiment: MTT cytotoxicity assay against normal dermal fibroblasts; assay type: cell-based; details: Fibroblast, value with 95% confidence interval, read-out: PCS-201-012 IC50 μM (95% CI)
Description: as §1, §2, §3, §4

Row | SMILES | IC50 [µM]
35 | O=C(c1cccs1)c1cc2c(s1)C(=O)c1c(O)cccc1C2=O [Compound 7, 8-hydroxy-2-(thiophen-2-ylcarbonyl)naphtho[2,3-b]thiophene-4,9-dione] | 4.56
36 | COC1(C(C)=O)CC2=C(O1)C(=O)c1ccccc1C2=O (centres unmarked) [Compound 4l, 2-Acetyl-2-methoxy-2,3-dihydronaphtho[2,3-b]furan-4,9-dione] | 12.9
37 | CCc1noc(-c2cc3c(s2)C(=O)c2ccccc2C3=O)n1 [Compound 9, 2-(3-ethyl-1,2,4-oxadiazol-5-yl)naphtho[2,3-b]thiophene-4,9-dione] | 1.03
38 | Cc1cc2c(o1)C(=O)c1ccccc1C2=O [Compound 4d, 2-Methylnaphtho[2,3-b]furan-4,9-dione] | 18.5
39 | O=C1C2=C(OC(c3ccccc3)C2)C(=O)c2ccccc21 (centres unmarked) [Compound 4q, 2-Phenyl-2,3-dihydronaphtho[2,3-b]furan-4,9-dione] | 9.16
40 | CCc1cc2c(o1)-c1ccccc1C(=O)C2=O [Compound 4h, 2-Ethylnaphtho[1,2-b]furan-4,5-dione] | 3.68
41 | C=C(C)C1(C)CC2=C(O1)c1ccccc1C(=O)C2=O (centres unmarked) [Compound 4p, 2-Methyl-2-(prop-1-en-2-yl)-2,3-dihydronaphtho[1,2-b]furan-4,5-dione] | 4.19
42 | C=C(C)C1(C)CC2=C(O1)C(=O)c1ccccc1C2=O (centres unmarked) [Compound 4o, 2-Methyl-2-(prop-1-en-2-yl)-2,3-dihydronaphtho[2,3-b]furan-4,9-dione] | 47.9
43 | CCN(CC)C(=O)c1cc2c(s1)C(=O)c1c(Cl)cccc1C2=O [Compound 8, 8-chloro-N,N-diethyl-4,9-dioxo-4,9-dihydronaphtho[2,3-b]thiophene-2-carboxamide] | 2.56
44 | NC1=CC(=O)c2ccccc2C1=O [Compound 2, 2-Aminonaphthalene-1,4-dione] | 7.34

test system: not given; experiment: not given; details: not given

Row | SMILES | melting point [°C]
45 | COC(=O)C1C2=C(OC1c1ccccc1)C(=O)c1ccccc1C2=O (centres unmarked) [Compound 4n, Methyl 4,9-Dioxo-2-phenyl-2,3,4,9-tetrahydronaphtho[2,3-b]furan-3-carboxylate] | 167
46 | COC1(C(C)=O)CC2=C(O1)C(=O)c1ccccc1C2=O (centres unmarked) [Compound 4l, 2-Acetyl-2-methoxy-2,3-dihydronaphtho[2,3-b]furan-4,9-dione] | 145
47 | O=C1c2ccccc2C(=O)c2oc(-c3ccccc3)cc21 [Compound 4k, 2-Phenylnaphtho[2,3-b]furan-4,9-dione] | 220
48 | Cc1cc2c([nH]1)C(=O)c1ccccc1C2=O [Compound 2b, 2-Methyl-1H-benzo[f]indole-4,9-dione] | 302 to 304
49 | CCCc1[nH]c2c(c1C)C(=O)c1ccccc1C2=O [Compound 2f, 3-Methyl-2-propyl-1H-benzo[f]indole-4,9-dione] | 266 to 270
50 | CCCC/C=C/C1=C(O)C(=O)c2ccccc2C1=O [Compound 4c, 2-[(1E)-Hex-1-en-1-yl]-3-hydroxynaphthalene-1,4-dione] | 85

Second part, the compound after the results:

Row | melting point [°C] | SMILES
51 | 136 | CCc1cc2c(o1)-c1ccccc1C(=O)C2=O [Compound 4h, 2-Ethylnaphtho[1,2-b]furan-4,5-dione]
52 | 147 | C=C(C)C1(C)CC2=C(O1)c1ccccc1C(=O)C2=O (centres unmarked) [Compound 4p, 2-Methyl-2-(prop-1-en-2-yl)-2,3-dihydronaphtho[1,2-b]furan-4,5-dione]
53 | 135 | C=C(C)C1(C)CC2=C(O1)C(=O)c1ccccc1C2=O (centres unmarked) [Compound 4o, 2-Methyl-2-(prop-1-en-2-yl)-2,3-dihydronaphtho[2,3-b]furan-4,9-dione]

Source: PMC6017957, “Synthesis, Anti-Proliferative Activity Evaluation and 3D-QSAR Study of Naphthoquinone Derivatives as Potential Anti-Colorectal Cancer Agents” (Molecules : A Journal of Synthetic Chemistry and Natural …, 2018)
